Values of other authors in patent US20240261236A1, “METHODS OF USING NMDA RECEPTOR ANTAGONISTS” (Seelos Therapeutics, Inc., priority 2021, published 2024).

Tests used:
[1] = Leung and Baillie 1986; cited from earlier work
NMDA receptor = details: binds to the NMDA receptor; Moaddel et al. 2013; cited from earlier work
[2] = 56 mg or 84 mg doses; Spravato label; cited from earlier work
[3] = 56 mg or 84 mg dose; Spravato label; cited from earlier work

SMILES	Ki (NMDA receptor) [µM]	also measured
NC1(c2ccccc2Cl)CCCC(O)C1=O (centres unmarked) [6-hydroxynorketamine]	–	anesthetic activity [1]: no anesthetic or locomotor activity
N[C@@]1(c2ccccc2Cl)CCC[C@@H](O)C1=O [(2R,6R)-hydroxynorketamine]	> 100	–
N[C@]1(c2ccccc2Cl)CCC[C@H](O)C1=O [(2S,6S)-hydroxynorketamine]	~21.2	–
N[C@@]1(c2ccccc2Cl)CCCCC1=O [(R)-norketamine]	~26.5	–
CN[C@]1(c2ccccc2Cl)CCCCC1=O [(S)-ketamine, (S)-2-(2-chlorophenyl)-2-(methylamino)cyclohexanone]	–	patients who developed dissociative changes on the CADSS assessment [2]: 61%-69%; subjects who developed sedation [3]: 48-61%
N[C@]1(c2ccccc2Cl)CCCCC1=O [(S)-norketamine]	~2.25	–
NC1(c2ccccc2Cl)CCCCC1=O (centres unmarked) [norketamine]	–	anesthetic activity [1]: anesthetic activity
